Our source for the IC50 values is US20230416205A1, “COMPOUNDS, COMPOSITIONS, AND METHODS” (Denali Therapeutics Inc, priority 2020, published 2023).

One assay deals with NLRP3. In words: IL-1β secretion assay in PMA-differentiated, LPS/nigericin-stimulated THP-1 cells (384-well, ELISA read-out). Format: cell-based, human. Particulars: Homo sapiens, THP-1, Table 4; IL-1β secretion, LPS/nigericin-stimulated THP-1 cells; read-out: IC50. Summed up: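 Secreted IL-1β quantified by capture ELISA from supernatants of PMA-differentiated THP-1 cells (30K per well). Sequence: LPS 25 ng/mL priming 2 h, compound 1 h, nigericin 2 h; dose-responses normalized between high (LPS plus 5 μM nigericin) and low (LPS alone) controls.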
A word on the IC50: it is the concentration at which inhibition is half-maximal. Regarding `O=C(CN1CC2(CC2)c2cc(Br)ccc2C1=O)Nc1ncc2c(n1)OCC2` [Example 329, 2-(6-bromo-1-oxospiro[3H-isoquinoline-4,1′-cyclopropane]-2-yl)-N-(5,6-dihydrofuro[2,3-d]pyrimidin-2-yl)acetamide], the IC50 came to 0.93 µM.

On to `O=C(CN1CC2(CC2)c2cc(Br)ccc2C1=O)Nc1ncc2c(n1)COCC2` [Example 330, 2-(6-bromo-1-oxospiro[3H-isoquinoline-4,1′-cyclopropane]-2-yl)-N-(6,8-dihydro-5H-pyrano[3,4-d]pyrimidin-2-yl)acetamide], for which the IC50 amounted to 1.02 µM.

As to `O=C(CN1CC2(CC2)c2cc(Br)ccc2C1=O)Nc1ncc2c(n1)CCOC2` [Example 331, 2-(6-bromo-1-oxospiro[3H-isoquinoline-4,1′-cyclopropane]-2-yl)-N-(7,8-dihydro-5H-pyrano[4,3-d]pyrimidin-2-yl)acetamide], the IC50 is 0.97 µM.

In the case of `O=C(CN1CC2(CC2)c2cc(Br)ccc2C1=O)Nc1ncc(C2COC2)cn1` [Example 332, 2-(6-bromo-1-oxospiro[3H-isoquinoline-4,1′-cyclopropane]-2-yl)-N-[5-(oxetan-3-yl)pyrimidin-2-yl]acetamide], the IC50 amounted to 0.768 µM.

For the molecule `O=C(CN1CC2(CC2)c2cc(Br)ccc2C1=O)Nc1nc2ccnn2cc1F` [Example 333, 2-(6-bromo-1-oxospiro[3H-isoquinoline-4,1′-cyclopropane]-2-yl)-N-(6-fluoropyrazolo[1,5-a]pyrimidin-5-yl)acetamide], the IC50 was found to be 0.895 µM.

In the case of `O=C(CN1CC2(CC2)c2cc(Br)ccc2C1=O)N[C@H]1C[C@@H](c2ccn[nH]2)C1` [Example 334, 2-(6-bromo-1-oxospiro[3H-isoquinoline-4,1′-cyclopropane]-2-yl)-N-[3-cis-(1H-pyrazol-5-yl)cyclobutyl]acetamide], the IC50 was found to be 7.51 µM.

`Cn1nc(NC(=O)CN2CC3(CC3)c3cc(Br)ccc3C2=O)ccc1=O` [Example 335, 2-(6-bromo-1-oxospiro[3H-isoquinoline-4,1′-cyclopropane]-2-yl)-N-(1-methyl-6-oxopyridazin-3-yl)acetamide]: the IC50 was determined as 2.08 µM.

Consider `O=C(CN1CC2(CC2)c2cc(C3COC3)ccc2C1=O)Nc1ncc(F)cn1` [Example 336, N-(5-fluoropyrimidin-2-yl)-2-[6-(oxetan-3-yl)-1-oxospiro[3H-isoquinoline-4,1′-cyclopropane]-2-yl]acetamide], for which the IC50 turned out to be 23.2 µM.

For `Cn1cc(NC(=O)CN2CC3(CC3)c3cc(Br)ccc3C2=O)ncc1=O` [Example 337, 2-(6-bromo-1-oxospiro[3H-isoquinoline-4,1′-cyclopropane]-2-yl)-N-(4-methyl-5-oxopyrazin-2-yl)acetamide], the IC50 was 7.47 µM.

Take `COc1ccnc(NC(=O)CN2CC3(CC3)c3cc(Br)ccc3C2=O)n1` [Example 338, 2-(6-bromo-1-oxospiro[3H-isoquinoline-4,1′-cyclopropane]-2-yl)-N-(4-methoxypyrimidin-2-yl)acetamide]: the IC50 came out at 1.58 µM.

`CC(C(=O)Nc1ncc(F)cn1)N1CC2(CC2)c2cc(Br)ccc2C1=O` (stereo not shown) [Example 339, 2-(6-bromo-1-oxospiro[3H-isoquinoline-4,1′-cyclopropane]-2-yl)-N-(5-fluoropyrimidin-2-yl)propanamide]: the IC50 was determined as 8.29 µM.

Turning to `CN(C(=O)CN1CC2(CC2)c2cc(Br)ccc2C1=O)C1CC(C)(O)C1` (stereo not drawn) [Example 342, 2-(6-bromo-1-oxospiro[3H-isoquinoline-4,1′-cyclopropane]-2-yl)-N-(3-cis-hydroxy-3-methylcyclobutyl)-N-methylacetamide], the IC50 amounted to 17.1 µM.

`O=C(CN1CC2(CC2)c2cc(Br)ccc2C1=O)Nc1nc2ccccn2c1F` [Example 343, 2-(6-bromo-1-oxospiro[3H-isoquinoline-4,1′-cyclopropane]-2-yl)-N-(3-fluoroimidazo[1,2-a]pyridin-2-yl)acetamide]: the IC50 turned out to be 7.5 µM.

For `CC1(C(F)(F)F)CN(CC(=O)Nc2ncc(F)cn2)C(=O)c2c(Br)cccc21` (stereo not shown) [Example 344, 2-[8-bromo-4-methyl-1-oxo-4-(trifluoromethyl)-3H-isoquinolin-2-yl]-N-(5-fluoropyrimidin-2-yl)acetamide], the IC50 worked out at 27.6 µM.

For the molecule `N#Cc1cc(F)c(NC(=O)CN2CC3(CC3)c3cc(Br)ccc3C2=O)cn1` [Example 345, 2-(6-bromo-1-oxospiro[3H-isoquinoline-4,1′-cyclopropane]-2-yl)-N-(6-cyano-4-fluoropyridin-3-yl)acetamide], the IC50 was found to be 15.1 µM.

In the case of `O=C(CN1CC2(CC2)c2cc(Br)ccc2C1=O)Nc1nccn2ncnc12` [Example 346, 2-(6-bromo-1-oxospiro[3H-isoquinoline-4,1′-cyclopropane]-2-yl)-N-([1,2,4]triazolo[1,5-a]pyrazin-8-yl)acetamide], the 50% inhibitory concentration (IC50) was 1.57 µM.

On to `CN1CCC(NC(=O)CN2CC3(CC3)c3cc(Br)ccc3C2=O)C1=O` (stereo not shown) [Example 347, 2-(6-bromo-1-oxospiro[3H-isoquinoline-4,1′-cyclopropane]-2-yl)-N-(1-methyl-2-oxopyrrolidin-3-yl)acetamide], for which the IC50 is 21.5 µM.

In the case of `Cn1ccnc(NC(=O)CN2CC3(CC3)c3cc(Br)ccc3C2=O)c1=O` [Example 348, 2-(6-bromo-1-oxospiro[3H-isoquinoline-4,1′-cyclopropane]-2-yl)-N-(4-methyl-3-oxopyrazin-2-yl)acetamide], the IC50 came to 1.32 µM.

Regarding `O=C(CN1CC2(CC2)c2cc(Br)ccc2C1=O)Nc1nccc2cccnc12` [Example 349, 2-(6-bromo-1-oxospiro[3H-isoquinoline-4,1′-cyclopropane]-2-yl)-N-(1,7-naphthyridin-8-yl)acetamide], the IC50 is 4.76 µM.

Turning to `O=C(CN1CC2(CC2)c2cc(Br)ccc2C1=O)Nc1nccn2cnnc12` [Example 350, 2-(6-bromo-1-oxospiro[3H-isoquinoline-4,1′-cyclopropane]-2-yl)-N-([1,2,4]triazolo[4,3-a]pyrazin-8-yl)acetamide], the IC50 came out at 3.59 µM.

Consider `O=C(CN1CC2(CC2)c2cc(Br)ccc2C1=O)Nc1nccn2ccnc12` [Example 351], for which the IC50 was determined as 4.23 µM.

For the molecule `O=C(CN1CC2(CC2)c2cc(Br)ccc2C1=O)Nc1nnc2ccccc2n1` [Example 352, N-(1,2,4-benzotriazin-3-yl)-2-(6-bromo-1-oxospiro[3H-isoquinoline-4,1′-cyclopropane]-2-yl)acetamide], the IC50 worked out at 6.08 µM.

As for `CC1(C)CN=C(NC(=O)CN2CC3(CC3)c3cc(Br)ccc3C2=O)O1` [Example 353, 2-(6-bromo-1-oxospiro[3H-isoquinoline-4,1′-cyclopropane]-2-yl)-N-(5,5-dimethyl-4H-1,3-oxazol-2-yl)acetamide], the IC50 was 5.42 µM.

As to `O=C(CN1CC2(CC2)c2cc(C(F)(F)F)cc(Cl)c2C1=O)Nc1ncc(F)cn1` [Example 354, 2-[8-chloro-1-oxo-6-(trifluoromethyl)spiro[3H-isoquinoline-4,1′-cyclopropane]-2-yl]-N-(5-fluoropyrimidin-2-yl)acetamide], the IC50 came out at 24 µM.

Take `O=C(CN1CC2(CC2)c2cc(Br)ccc2C1=O)N[C@@H]1CCN(Cc2ccccc2)C1` [Example 355, N-[(3R)-1-benzylpyrrolidin-3-yl]-2-(6-bromo-1-oxospiro[3H-isoquinoline-4,1′-cyclopropane]-2-yl)acetamide]: the IC50 is 5.02 µM.

On to `N#Cc1cccc2oc(NC(=O)CN3CC4(CC4)c4cc(Br)ccc4C3=O)nc12` [Example 356, 2-(6-bromo-1-oxospiro[3H-isoquinoline-4,1′-cyclopropane]-2-yl)-N-(4-cyano-1,3-benzoxazol-2-yl)acetamide], for which the IC50 is 2.3 µM.

Consider `O=C(CN1CC2(CC2)c2cc(Br)ccc2C1=O)NC1CC(OCc2ccccc2)C1` (stereo not drawn) [Example 357, 2-(6-bromo-1-oxospiro[3H-isoquinoline-4,1′-cyclopropane]-2-yl)-N-(3-trans-phenylmethoxycyclobutyl)acetamide], for which the IC50 amounted to 5.21 µM.

On to `O=C(CN1CC2(CC2)c2cc(Br)ccc2C1=O)Nc1nc2cc(C(F)(F)F)ccc2o1` [Example 358, 2-(6-bromo-1-oxospiro[3H-isoquinoline-4,1′-cyclopropane]-2-yl)-N-[5-(trifluoromethyl)-1,3-benzoxazol-2-yl]acetamide], for which the IC50 was determined as 1.29 µM.

For `O=C(CN1CC2(CC2)c2cc(Br)ccc2C1=O)Nc1ncc(C2CCCO2)cn1` (stereo not shown) [Example 359, 2-(6-bromo-1-oxospiro[3H-isoquinoline-4,1′-cyclopropane]-2-yl)-N-[5-(oxolan-2-yl)pyrimidin-2-yl]acetamide], the IC50 was 0.603 µM.

Consider `CN1CCC[C@@H](NC(=O)CN2CC3(CC3)c3cc(Br)ccc3C2=O)C1` [Example 360, 2-(6-bromo-1-oxospiro[3H-isoquinoline-4,1′-cyclopropane]-2-yl)-N-[(3R)-1-methylpiperidin-3-yl]acetamide], for which the IC50 was 3.46 µM.

Regarding `O=C(CN1CC2(CC2)c2cc(Br)ccc2C1=O)Nc1nc2ccc(C(F)(F)F)cc2o1` [Example 361, 2-(6-bromo-1-oxospiro[3H-isoquinoline-4,1′-cyclopropane]-2-yl)-N-[6-(trifluoromethyl)-1,3-benzoxazol-2-yl]acetamide], the IC50 stood at 0.849 µM.

As for `O=C(CN1CC2(CC2)c2cc(Br)ccc2C1=O)Nc1cc2n(n1)CCOC2` [Example 362, 2-(6-bromo-1-oxospiro[3H-isoquinoline-4,1′-cyclopropane]-2-yl)-N-(6,7-dihydro-4H-pyrazolo[5,1-c][1,4]oxazin-2-yl)acetamide], the IC50 was found to be 1.45 µM.

Staying with this assay, now noted: Table 4; IL-1β secretion, LPS/nigericin-stimulated THP-1 cells; read-out: IC50.
`COC1(C)CC(NC(=O)CN2CC3(CC3)c3cc(Br)ccc3C2=O)C1` (stereo not drawn) [Example 340, 2-(6-bromo-1-oxospiro[3H-isoquinoline-4,1′-cyclopropane]-2-yl)-N-(3-trans-methoxy-3-methylcyclobutyl)acetamide]: the IC50 worked out at 7.87 µM.

As for `COC1(C)CC(NC(=O)CN2CC3(CC3)c3cc(Br)ccc3C2=O)C1` (stereo not drawn) [Example 341, 2-(6-bromo-1-oxospiro[3H-isoquinoline-4,1′-cyclopropane]-2-yl)-N-(3-cis-methoxy-3-methylcyclobutyl)acetamide], the IC50 was determined as 2.41 µM.
